The values below come from patent publication US4190666A, “Anti-inflammatory 4,5-diarly-2-(substituted-thio)imidazoles and their corresponding sulfoxides and sulfones” (E. I. Du Pont de Nemours and Company, priority 1978, dated 1980).

The first assay concerns established adjuvant-induced arthritis in rats. Put plainly: Established adjuvant-induced arthritis in rats (therapeutic, paw volume). Conditions: 25 mg./kg., oral. It counts as in vivo, Charles River Lewis male rats.
For the molecule `CSc1nc(-c2ccccc2)c(-c2ccc(Cl)c(Cl)c2)[nH]1` [Example 112], the “percent (%) reduction in paw volume measured at the indicated dose” value is on record as 62%.

Still in this assay, the particulars now being: Rattus norvegicus, po, established arthritis, 7 daily doses, ED50% decrease from control paw volume, Tables I-III, read-out: Adjuvant Arthritis (ED50%).
As a reminder, the ED50 is the midpoint of the dose-response relation. For the molecule `C[S+]([O-])c1nc(-c2ccccc2)c(-c2ccc(Cl)c(Cl)c2)[nH]1` (stereo not drawn) [Example 146], the ED50 stood at 50 mg/kg.

Consider `C=CCS(=O)(=O)c1nc(-c2ccc(OC)cc2)c(-c2ccc(OC)cc2)[nH]1` [Example 55], for which the ED50 was 11 mg/kg.

Take `Cc1ccc(-c2nc(S(=O)(=O)C(F)(F)C(F)F)[nH]c2-c2ccc(C)cc2)cc1` [Example 81]: the ED50 was 0.35 mg/kg.

Take `CC[S+]([O-])c1nc(-c2ccc(OC)cc2)c(-c2ccc(OC)cc2)[nH]1` (stereo not drawn) [Example 13, 2-Ethylsulfinyl-4,5-bis(4-methoxyphenyl)imidazole]: the ED50 was found to be 10 mg/kg.

In the case of `O=S(=O)(c1nc(-c2ccccc2)c(-c2ccccc2)[nH]1)C(F)(F)C(F)Cl` (stereo not drawn) [Example 73], the ED50 stood at 0.25 mg/kg.

On to `O=S(=O)(c1nc(-c2ccccc2)c(-c2cccc(Cl)c2)[nH]1)C(F)(F)C(F)F` [Example 144], for which the ED50 turned out to be 0.05 mg/kg.

In the case of `COc1ccc(-c2nc(SC(F)(F)C(F)F)[nH]c2-c2ccccc2)cc1` [Example 44], the ED50 is 20 mg/kg.

With `CCC[S+]([O-])c1nc(-c2ccc(OC)cc2)c(-c2ccc(OC)cc2)[nH]1` (stereo not drawn) [Example 61], the ED50 was found to be 13 mg/kg.

With `CCSc1nc(-c2ccc(OC)cc2)c(-c2ccc(OC)cc2)[nH]1` [Example 10, 2-Ethylthio-4,5-bis(4-methoxyphenyl)imidazole], the ED50 turned out to be 4.7 mg/kg.

Turning to `[O-][S+](CC(F)(F)F)c1nc(-c2ccccc2)c(-c2ccccc2)[nH]1` (stereo not drawn) [Example 2, 4,5-Diphenyl-2-(2,2,2-trifluoroethylsulfinyl)imidazole], the ED50 worked out at 48 mg/kg.

As for `Fc1ccc(-c2nc(SC(F)(F)C(F)F)[nH]c2-c2ccc(F)cc2)cc1` [Example 40], the ED50 was found to be 0.075 mg/kg.

For the molecule `O=S(=O)(c1nc(-c2ccc(F)cc2)c(-c2ccc(F)cc2)[nH]1)C(F)F` [Example 78], the ED50 is 0.1 mg/kg.

With `C[S+]([O-])c1nc(-c2ccc(F)cc2)c(-c2ccc(F)cc2)[nH]1` (stereo not drawn) [Example 136], the ED50 amounted to 4 mg/kg.

On to `Fc1ccc(-c2[nH]c(SC(F)(F)C(F)F)nc2-c2ccc(Cl)cc2)cc1` [Example 42], for which the ED50 is 0.18 mg/kg.

On to `O=S(=O)(c1nc(-c2ccc3c(c2)OCO3)c(-c2ccc3c(c2)OCO3)[nH]1)C(F)(F)C(F)F` [Example 97], for which the ED50 is 1 mg/kg.

As for `O=S(=O)(c1nc(-c2ccc(Cl)cc2)c(-c2ccc(Cl)cc2)[nH]1)C(F)(F)C(F)F` [Example 69, 4,5-bis(4-chlorophenyl)-2-(1,1,2,2-tetrafluoroethylsulfonyl)imidazole], the ED50 was determined as 0.2 mg/kg.

Regarding `FC(F)C(F)(F)Sc1nc(-c2ccccc2)c(-c2cccc(Cl)c2)[nH]1` [Example 121], the ED50 was found to be 0.6 mg/kg.

For the molecule `CSc1nc(-c2ccccc2)c(-c2cccc(F)c2)[nH]1` [Example 113], the ED50 was found to be 50 mg/kg.

For `CS(=O)(=O)c1nc(-c2ccc(Cl)cc2)c(-c2ccccc2)[nH]1` [Example 85], the ED50 was 30 mg/kg.

With `[O-][S+](c1nc(-c2ccc(Cl)cc2)c(-c2ccc(Cl)cc2)[nH]1)C(F)F` (stereo not drawn) [Example 94], the ED50 was 0.19 mg/kg.

Take `CSc1nc(-c2ccc(F)cc2)c(-c2ccc(F)cc2)[nH]1` [Example 28]: the ED50 was determined as 3.5 mg/kg.

Consider `FC(F)Sc1nc(-c2ccc(Cl)cc2)c(-c2ccc(Cl)cc2)[nH]1` [Example 31], for which the ED50 is 0.35 mg/kg.

Regarding `COc1ccc(-c2nc(SC)[nH]c2-c2ccc(OC)cc2)cc1` [Example 15, 4,5-bis(4-Methoxyphenyl)-2-methylthioimidazole], the ED50 worked out at 4.4 mg/kg.

With `Cc1ccc(-c2nc(S(=O)(=O)C(F)(F)C(F)F)[nH]c2-c2ccccc2)cc1` [Example 96], the ED50 is 0.6 mg/kg.

For `COc1ccc(-c2[nH]c(SC(F)(F)C(F)F)nc2-c2ccc(F)cc2)cc1` [Example 117], the ED50 amounted to 14 mg/kg.

Still in this assay, the particulars now being: Rattus norvegicus; established arthritis, oral, 7 daily doses; ED50% decrease from control paw volume; Tables I-III; read-out: Adjuvant Arthritis (ED50%).
For `O=[N+]([O-])c1ccc(-c2nc(S(=O)(=O)C(F)(F)C(F)F)[nH]c2-c2ccc([N+](=O)[O-])cc2)cc1` [Example 135], the ED50 came out at 8.5 mg/kg.
